The record followed here is patent publication US20170349593A1, “BTK INHIBITORS” (MERCK SHARP & DOHME CORP., priority 2014, published 2017).

Assay [1] concerns adenosine uptake into HeLa cells. The experiment in a line: [3H]Adenosine uptake assay. The class given is cell-based. The note with it: Homo sapiens; accumulation of [3H]adenosine into HeLa cells; concentration range 10 μM to 0.032 nM; read-out: ADU inhibition IC50. The method, boiled down: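 HeLa cells (25 000/well), plated overnight, were preincubated 30 minutes at ambient temperature with compound in HBSS + 5% FBS. Ten-point titrations ran from 10 μM to 0.032 nM final. [3H]adenosine was added from a 500 nM solution for 60 minutes, and uptake was measured by scintillation proximity counting; IC50 came from a 4-parameter fit.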

Assay [2] addresses T1, BTK enzyme (recombinant full-length BTK, hBTK) (Homo sapiens, UniProt Q06187).
T1 construct: recombinant protein from baculovirus-transfected S 19 cells: full-length BTK, 6 HIS-tag cleaved; 6 HIS-tag (cleaved yes); made in house
The assay is described as follows: Btk enzyme activity assay (LANCE TR-FRET). The class given is biochemical. The settings on record: 50 pM hBTK, 25 μM ATP, 60 minute compound and enzyme incubation, concentration range 1 μM to 0.017 nM, read-out: BTK binding IC50. In general terms: Time-resolved FRET reads energy transfer from a long-lived donor to a nearby acceptor.

T1 sequence (Q06187 whole entry): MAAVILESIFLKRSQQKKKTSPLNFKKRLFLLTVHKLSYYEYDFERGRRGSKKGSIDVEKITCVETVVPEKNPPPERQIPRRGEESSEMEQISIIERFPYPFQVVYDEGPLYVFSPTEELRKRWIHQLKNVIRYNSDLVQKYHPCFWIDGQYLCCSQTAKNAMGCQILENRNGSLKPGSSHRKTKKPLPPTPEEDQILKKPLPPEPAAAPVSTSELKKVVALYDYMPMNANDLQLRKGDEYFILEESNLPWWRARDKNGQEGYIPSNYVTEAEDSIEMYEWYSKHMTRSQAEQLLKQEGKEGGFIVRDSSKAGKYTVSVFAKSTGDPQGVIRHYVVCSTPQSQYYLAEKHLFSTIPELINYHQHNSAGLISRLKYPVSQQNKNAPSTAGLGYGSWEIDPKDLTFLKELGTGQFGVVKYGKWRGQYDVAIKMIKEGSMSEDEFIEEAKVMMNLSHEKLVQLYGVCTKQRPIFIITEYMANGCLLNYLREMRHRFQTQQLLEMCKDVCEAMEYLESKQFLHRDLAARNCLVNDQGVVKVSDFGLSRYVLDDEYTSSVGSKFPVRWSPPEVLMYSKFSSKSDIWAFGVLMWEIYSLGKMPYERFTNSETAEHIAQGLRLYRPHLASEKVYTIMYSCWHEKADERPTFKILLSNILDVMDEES

One may read the IC50 as the concentration needed to halve the response being measured. As for `COc1cc(C(=O)Nc2cc(C(F)(F)F)ccn2)ccc1-c1nc([C@H]2CN(C3CCOCC3)[C@@H](C)CO2)n2c(Cl)cnc(N)c12` [Example 46, 4-{8-amino-5-chloro-3-[(2R,5S)-5-methyl-4-(tetrahydro-2H-pyran-4-yl)morpholin-2-yl]imidazo[1,5-a]pyrazin-1-yl}-3-methoxy-N-[4-(trifluoromethyl)pyridin-2-yl]benzamide], the IC50 stood at 2160 nM in assay [1] and 1.94 nM in assay [2].
The corresponding values for `C[C@H]1CO[C@@H](c2nc(-c3ccc(C(=O)Nc4cc(C(F)(F)F)ccn4)cc3F)c3c(N)ncc(Cl)n23)CN1C1CCOCC1` [Example 48, 4-{8-amino-5-chloro-3-[(2R,5S)-5-methyl-4-(tetrahydro-2H-pyran-4-yl)morpholin-2-yl]imidazo[1,5-a]pyrazin-1-yl}-3-fluoro-N-[4-(trifluoromethyl)pyridin-2-yl]benzamide] are 397 nM and 0.303 nM.
Take `Nc1nccn2c([C@H]3CN(C4CCOCC4)[C@H](CO)CO3)nc(-c3ccc(C(=O)Nc4cc(C(F)(F)F)ccn4)cc3F)c12` [Example 65, 4-{8-amino-3-[(2R,5R)-5-(hydroxymethyl)-4-(tetrahydro-2H-pyran-4-yl)morpholin-2-yl]imidazo[1,5-a]pyrazin-1-yl}-3-fluoro-N-[4-(trifluoromethyl)pyridin-2-yl]benzamide]: the IC50 in assay [1] was 136 nM; in assay [2] it was 6.78 nM.
Consider `COc1cc(C(=O)Nc2cc(C(F)(F)F)ccn2)ccc1-c1nc([C@H]2CN(C3CCOCC3)[C@@H](C)CO2)n2ccnc(N)c12` [Example 60, 4-{8-amino-3-[(2R,5S)-5-methyl-4-(tetrahydro-2H-pyran-4-yl)morpholin-2-yl]imidazo[1,5-a]pyrazin-1-yl}-3-methoxy-N-[4-(trifluoromethyl)pyridin-2-yl]benzamide], for which the IC50 in assay [1] was found to be 1620 nM; in assay [2], 1.57 nM.
Turning to `COc1cc(C(=O)Nc2cc(C(F)(F)F)ccn2)ccc1-c1nc([C@H]2CN(C(C)=O)[C@@H](C)CO2)n2c(Cl)cnc(N)c12` [Example 17, 4-{3-[(2R,5S)-4-acetyl-5-methylmorpholin-2-yl]-8-amino-5-chloroimidazo[1,5-a]pyrazin-1-yl}-3-methoxy-N-[4-(trifluoromethyl)pyridin-2-yl]benzamide], the IC50 in assay [1] is 1620 nM; in assay [2] it was 2.27 nM.
Regarding `C[C@H]1CC[C@@H](c2nc(-c3ccc(C(=O)Nc4cc(C(C)(F)F)ccn4)cc3)c3c(N)nccn23)CN1C(=O)N(C)C` [Example 96, (2S,5R)-5-[8-amino-1-(4-{[4-(1,1-difluoroethyl)pyridin-2-yl]carbamoyl}phenyl)imidazo[1,5-a]pyrazin-3-yl]-N,N,2-trimethylpiperidine-1-carboxamide], the figures for the IC50 in assay [1] and in assay [2] were 69.8 nM and 0.168 nM, respectively.
The like results for `C[C@@H]1CO[C@@H](c2nc(-c3ccc(C(=O)Nc4cc(C(F)(F)F)ccn4)cc3F)c3c(N)nccn23)CN1C(=O)C1(C)CC1` [Example 69, 4-(8-amino-3-{(2R,5R)-5-methyl-4-[(1-methylcyclopropyl)carbonyl]morpholin-2-yl}imidazo[1,5-a]pyrazin-1-yl)-3-fluoro-N-[4-(trifluoromethyl)pyridin-2-yl]benzamide] were, in that order, 139 nM and 10.9 nM.
With `COc1cc(C(=O)Nc2cc(C(F)(F)F)ccn2)ccc1-c1nc([C@H]2CN(C(=O)[C@H](C)OC)[C@@H](C)CO2)n2ccnc(N)c12` [Example 51, 4-(8-amino-3-{(2R,5S)-4-[(2S)-2-methoxypropanoyl]-5-methylmorpholin-2-yl}imidazo[1,5-a]pyrazin-1-yl)-3-methoxy-N-[4-(trifluoromethyl)pyridin-2-yl]benzamide], the IC50 in assay [1] is 1410 nM; in assay [2], 4.31 nM.
The like results for `CCOc1cc(C(=O)Nc2cc(C(F)(F)F)ccn2)ccc1-c1nc([C@H]2CN(C(=O)C3(C)CC3)[C@@H](C)CO2)n2c(Cl)cnc(N)c12` [Example 12, 4-(8-amino-5-chloro-3-{(2R,5S)-5-methyl-4-[(1-methylcyclopropyl)carbonyl]morpholin-2-yl}imidazo[1,5-a]pyrazin-1-yl)-3-ethoxy-N-[4-(trifluoromethyl)pyridin-2-yl]benzamide] were, in that order, at least 10000 nM and 1.1 nM.
Regarding `CCOc1cc(C(=O)Nc2cc(C(F)(F)F)ccn2)ccc1-c1nc([C@@H]2CC[C@H](C(F)(F)F)N(C(=O)C3CC3)C2)n2ccnc(N)c12` [Example 1, 4-{8-amino-3-[(3R,6R)-1-(cyclopropylcarbonyl)-6-(trifluoromethyl)piperidin-3-yl]imidazo[1,5-a]pyrazin-1-yl}-3-ethoxy-N-[4-(trifluoromethyl)pyridin-2-yl]benzamide], the IC50 in assay [1] was 918 nM; in assay [2], 347 nM.
The corresponding values for `CC(C)C(=O)N1C[C@H](c2nc(-c3ccc(C(=O)Nc4cc(C(F)(F)F)ccn4)cc3)c3c(N)nccn23)OC[C@@H]1C` [Example 82, 4-{8-amino-3-[(2R,5S)-5-methyl-4-(2-methylpropanoyl)morpholin-2-yl]imidazo[1,5-a]pyrazin-1-yl}-N-[4-(trifluoromethyl)pyridin-2-yl]benzamide] are 262 nM and 0.546 nM.
The corresponding values for `CCOc1cc(C(=O)Nc2cc(C(F)(F)F)n(C)n2)ccc1-c1nc([C@@H]2CC[C@H](C)N(C(=O)[C@@H](C)O)C2)n2ccnc(N)c12` [Example 109, 4-(8-amino-3-{(3R,6S)-1-[(2R)-2-hydroxypropanoyl]-6-methylpiperidin-3-yl}imidazo[1,5-a]pyrazin-1-yl)-3-ethoxy-N-[1-methyl-5-(trifluoromethyl)-1H-pyrazol-3-yl]benzamide] are 3340 nM and 0.403 nM.
With `COc1cc(C(=O)Nc2cc(C(F)(F)F)ccn2)ccc1-c1nc([C@H]2CN(C(=O)C3CN(Cc4c(F)cccc4F)C3)[C@@H](C)CO2)n2ccnc(N)c12` [Example 35, 4-{8-amino-3-[(2R,5S)-4-{[1-(2,6-difluorobenzyl)azetidin-3-yl]carbonyl}-5-methylmorpholin-2-yl]imidazo[1,5-a]pyrazin-1-yl}-3-methoxy-N-[4-(trifluoromethyl)pyridin-2-yl]benzamide], the IC50 in assay [1] was determined as 747 nM; in assay [2], 3.21 nM.
The like results for `C[C@H]1CC[C@@H](c2nc(-c3ccc(C(=O)Nc4cc(C(F)F)ccn4)cc3)c3c(N)nccn23)CN1C(=O)C1(O)CC1` [Example 93, 4-(8-amino-3-{(3R,6S)-1-[(1-hydroxycyclopropyl)carbonyl]-6-methylpiperidin-3-yl}imidazo[1,5-a]pyrazin-1-yl)-N-[4-(difluoromethyl)pyridin-2-yl]benzamide] were, in that order, 37.1 nM and 0.248 nM.
Take `CC(C)C(=O)N1C[C@H](c2nc(-c3ccc(C(=O)Nc4cc(C(F)(F)F)ccn4)cc3F)c3c(N)nccn23)OC[C@@H]1C` [Example 87, 4-{8-amino-3-[(2R,5S)-5-methyl-4-(2-methylpropanoyl)morpholin-2-yl]imidazo[1,5-a]pyrazin-1-yl}-3-fluoro-N-[4-(trifluoromethyl)pyridin-2-yl]benzamide]: the IC50 in assay [1] was determined as 141 nM; in assay [2], 0.738 nM.
The corresponding values for `C[C@H]1CO[C@@H](c2nc(-c3ccc(C(=O)Nc4cc(C(F)(F)F)ccn4)cc3F)c3c(N)ncc(Cl)n23)CN1C(=O)C1CC1` [Example 41, 4-{8-amino-5-chloro-3-[(2R,5S)-4-(cyclopropylcarbonyl)-5-methylmorpholin-2-yl]imidazo[1,5-a]pyrazin-1-yl}-3-fluoro-N-[4-(trifluoromethyl)pyridin-2-yl]benzamide] are 383 nM and 0.626 nM.
The like results for `Cn1cc(CN2C[C@H](c3nc(-c4ccc(C(=O)Nc5cc(C(F)(F)F)ccn5)cc4F)c4c(N)nccn34)OC[C@H]2CO)cn1` [Example 64, 4-(8-amino-3-{(2R,5R)-5-(hydroxymethyl)-4-[(1-methyl-1H-pyrazol-4-yl)methyl]morpholin-2-yl}imidazo[1,5-a]pyrazin-1-yl)-3-fluoro-N-[4-(trifluoromethyl)pyridin-2-yl]benzamide] were, in that order, 260 nM and 4.33 nM.
Take `CO[C@H](C)C(=O)N1C[C@H](c2nc(-c3ccc(C(=O)Nc4cc(C(F)(F)F)ccn4)cc3F)c3c(N)nccn23)OC[C@@H]1C` [Example 79, 4-(8-amino-3-{(2R,5S)-4-[(2R)-2-methoxypropanoyl]-5-methylmorpholin-2-yl}imidazo[1,5-a]pyrazin-1-yl)-3-fluoro-N-[4-(trifluoromethyl)pyridin-2-yl]benzamide]: the results for the IC50 in assay [1] and in assay [2] were 288 nM and 0.423 nM, respectively.
The like results for `C[C@H]1CO[C@@H](c2nc(-c3ccc(C(=O)Nc4cc(C5CC5)ccn4)cc3F)c3c(N)ncc(Cl)n23)CN1C1CCOCC1` [Example 44, 4-{8-amino-5-chloro-3-[(2R,5S)-5-methyl-4-(tetrahydro-2H-pyran-4-yl)morpholin-2-yl]imidazo[1,5-a]pyrazin-1-yl}-N-(4-cyclopropylpyridin-2-yl)-3-fluorobenzamide] were, in that order, 362 nM and 0.358 nM.
On to `C[C@H]1CO[C@@H](c2nc(-c3ccc(C(=O)Nc4cc(C(F)(F)F)ccn4)cc3F)c3c(N)nccn23)CN1Cc1cnn(C)c1` [Example 74, 4-(8-amino-3-{(2R,5S)-5-methyl-4-[(1-methyl-1H-pyrazol-4-yl)methyl]morpholin-2-yl}imidazo[1,5-a]pyrazin-1-yl)-3-fluoro-N-[4-(trifluoromethyl)pyridin-2-yl]benzamide], for which the IC50 in assay [1] is 224 nM; in assay [2], 0.47 nM.
